Patent US6914045B2, “Glycopeptide antibiotics” (Wyeth Holdings Corporation, priority 2001, dated 2005)
Converted amounts (≈) assume the structure as drawn. Read-outs that look alike come from different tables or passages of the source. Each block holds one compound with its values, some of them ahead of it.

Experiments:
Test in all cases: in vitro antibacterial evaluation, MIC by broth dilution
Format in all cases: cell-based
[1] = tested on: Streptococcus sp.
Procedure, shortened: (§1)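 Test organisms, which included recent clinical isolates resistant to methicillin, penicillin and/or vancomycin, were inoculated at 5×10^5 CFU/mL into Muller-Hinton II […] containing antibiotic at 64-0.06 μg/mL. Minimum inhibitory concentrations were then read as the lowest level inhibiting growth.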

[2] = tested on: Staphylococcus sp.
Procedure, shortened: as §1

[3] = tested on: Enterococcus sp.
Procedure, shortened: as §1

[4] = tested on: Escherichia coli
Procedure, shortened: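 MIC is the lowest antibiotic concentration (tested 64-0.06 μg/mL) preventing growth of a 5×10^5 CFU/mL inoculum. Determined by broth dilution in Mueller-Hinton II medium following NCCLS standard M7-A2.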

Compound: CC(c1ccccc1)C1NC(=O)CNC(=O)C(CO)NC(=O)C(C(O)C2CNC(=N)N2C2OC(CO)C(O)C(O)C2O)NC(=O)C(C(O)C2CNC(=N)N2)NC(=O)C(Cc2ccc3oc(-c4ccc(-c5ccccc5)cc4)nc3c2)NC1=O (stereo not drawn) [Example 33, Cyclo[3-[2-([1,1-biphenyl]-4-yl)-1,3-benzoxazol-5-yl]alanyl-3-(2-iminoimidazolidin-4-yl)-seryl-3-(3-hexopyranosyl-2-iminoimidazolidin-4-yl)serylserylglycyl-β-methylphenylalanyl]]
MIC Streptococcus agalactiae (GC 4564) [1]: 32 mg/L (≈ 27.9 µM) | MIC Streptococcus pneumoniae (ATCC 6301) [1]: 32 mg/L (≈ 27.9 µM) | MIC Streptococcus pneumoniae (GC 1894) [1]: 32 mg/L (≈ 27.9 µM) | MIC Streptococcus pneumoniae (GC 4565) [1]: 64 mg/L (≈ 55.7 µM) | MIC Streptococcus pyogenes (GC 4563) [1]: 16 mg/L (≈ 13.9 µM) | MIC Coagulase Negative Staphylococcus (GC 4547) [2]: 4 mg/L (≈ 3.48 µM) | MIC Coagulase Negative Staphylococcus (GC 4548) [2]: 4 mg/L (≈ 3.48 µM) | MIC Coagulase Negative Staphylococcus (GC 4549) [2]: 1 mg/L (≈ 0.871 µM) | MIC Coagulase Negative Staphylococcus (GC 4551) [2]: 8 mg/L (≈ 6.97 µM) | MIC Coagulase Negative Staphylococcus (GC 6257) [2]: 4 mg/L (≈ 3.48 µM) | MIC Staphylococcus aureus (ATCC 29213) [2]: 8 mg/L (≈ 6.97 µM) | MIC Staphylococcus aureus (GC 1131) [2]: 4 mg/L (≈ 3.48 µM) | MIC Staphylococcus aureus (GC 3051) [2]: 16 mg/L (≈ 13.9 µM) | MIC Staphylococcus aureus (GC 3053) [2]: 8 mg/L (≈ 6.97 µM) | MIC Staphylococcus aureus (GC 4541) [2]: 8 mg/L (≈ 6.97 µM) | MIC Staphylococcus aureus (GC 4542) [2]: 8 mg/L (≈ 6.97 µM) | MIC Staphylococcus aureus (GC 4544) [2]: 4 mg/L (≈ 3.48 µM) | MIC Staphylococcus aureus (GC 4545) [2]: 8 mg/L (≈ 6.97 µM) | MIC Staphylococcus aureus-SMITH (GC 4543) [2]: 4 mg/L (≈ 3.48 µM) | MIC Staphylococcus haemolyticus (GC 4546) [2]: 4 mg/L (≈ 3.48 µM) | MIC Enterococcus avium (GC 4558) [3]: 8 mg/L (≈ 6.97 µM) | MIC Enterococcus faecalis (ATCC 29212) [3]: 32 mg/L (≈ 27.9 µM) | MIC Enterococcus faecalis (GC 2242) [3]: 16 mg/L (≈ 13.9 µM) | MIC Enterococcus faecalis (GC 2691) [3]: 16 mg/L (≈ 13.9 µM) | MIC Enterococcus faecalis (GC 3059) [3]: 32 mg/L (≈ 27.9 µM) | MIC Enterococcus faecalis (GC 4552) [3]: 16 mg/L (≈ 13.9 µM) | MIC Enterococcus faecalis (GC 4553) [3]: 16 mg/L (≈ 13.9 µM) | MIC Enterococcus faecalis (GC 4554) [3]: 16 mg/L (≈ 13.9 µM) | MIC Enterococcus faecalis (GC 6189) [3]: 16 mg/L (≈ 13.9 µM) | MIC Enterococcus faecium (GC 2243) [3]: 8 mg/L (≈ 6.97 µM) | MIC Enterococcus faecium (GC 4556) [3]: 64 mg/L (≈ 55.7 µM) | MIC Enterococcus faecium (GC 4557) [3]: 4 mg/L (≈ 3.48 µM) | MIC Escherichia coli (ATCC 25922) [4]: 64 mg/L (≈ 55.7 µM) | MIC Escherichia coli (GC 4559) [4]: 64 mg/L (≈ 55.7 µM) | MIC Escherichia coli (GC 4560) [4]: 16 mg/L (≈ 13.9 µM)

MIC Streptococcus pneumoniae (ATCC 6301) ([1]; strain ATCC 6301, broth dilution, 18 hours at 35° C.): 32 mg/L (≈ 27.5 µM) | MIC Streptococcus pneumoniae (GC 1894) ([1]; strain GC 1894, broth dilution, 18 hours at 35° C.): 16 mg/L (≈ 13.8 µM) | MIC Streptococcus pyogenes (GC 4563) ([1]; strain GC 4563, broth dilution, 18 hours at 35° C.): 8 mg/L (≈ 6.88 µM) | MIC Streptococcus agalactiae (GC 4564) ([1]; strain GC 4564, broth dilution, 18 hours at 35° C.): 32 mg/L (≈ 27.5 µM) | MIC Streptococcus pneumoniae (GC 4565) ([1]; strain GC 4565, broth dilution, 18 hours at 35° C.): 32 mg/L (≈ 27.5 µM) | MIC Staphylococcus aureus (ATCC 29213) ([2]; strain ATCC 29213, broth dilution, 18 hours at 35° C.): 32 mg/L (≈ 27.5 µM) | MIC Staphylococcus aureus (GC 1131) ([2]; strain GC 1131, broth dilution, 18 hours at 35° C.): 32 mg/L (≈ 27.5 µM) | MIC Staphylococcus aureus (GC 3051) ([2]; strain GC 3051, broth dilution, 18 hours at 35° C.): 16 mg/L (≈ 13.8 µM) | MIC Staphylococcus aureus (GC 3053) ([2]; strain GC 3053, broth dilution, 18 hours at 35° C.): 32 mg/L (≈ 27.5 µM) | MIC Staphylococcus aureus (GC 4541) ([2]; strain GC 4541, broth dilution, 18 hours at 35° C.): 32 mg/L (≈ 27.5 µM) | MIC Staphylococcus aureus (GC 4542) ([2]; strain GC 4542, broth dilution, 18 hours at 35° C.): 32 mg/L (≈ 27.5 µM) | MIC Staphylococcus aureus-SMITH (GC 4543) ([2]; strain GC 4543, broth dilution, 18 hours at 35° C.): 16 mg/L (≈ 13.8 µM) | MIC Staphylococcus aureus (GC 4544) ([2]; strain GC 4544, broth dilution, 18 hours at 35° C.): 16 mg/L (≈ 13.8 µM) | MIC Staphylococcus aureus (GC 4545) ([2]; strain GC 4545, broth dilution, 18 hours at 35° C.): 32 mg/L (≈ 27.5 µM) | MIC Coagulase Negative Staphylococcus (GC 4547) ([2]; strain GC 4547, broth dilution, 18 hours at 35° C.): 16 mg/L (≈ 13.8 µM) | MIC Coagulase Negative Staphylococcus (GC 4548) ([2]; strain GC 4548, broth dilution, 18 hours at 35° C.): 16 mg/L (≈ 13.8 µM) | MIC Coagulase Negative Staphylococcus (GC 4549) ([2]; strain GC 4549, broth dilution, 18 hours at 35° C.): 4 mg/L (≈ 3.44 µM) | MIC Coagulase Negative Staphylococcus (GC 4551) ([2]; strain GC 4551, broth dilution, 18 hours at 35° C.): 32 mg/L (≈ 27.5 µM) | MIC Coagulase Negative Staphylococcus (GC 6257) ([2]; strain GC 6257, broth dilution, 18 hours at 35° C.): 8 mg/L (≈ 6.88 µM) | MIC Enterococcus faecalis (ATCC 29212) ([3]; strain ATCC 29212, broth dilution, 18 hours at 35° C.): 64 mg/L (≈ 55.1 µM) | MIC Enterococcus faecalis (GC 2242) ([3]; strain GC 2242, broth dilution, 18 hours at 35° C.): 32 mg/L (≈ 27.5 µM) | MIC Enterococcus faecium (GC 2243) ([3]; strain GC 2243, broth dilution, 18 hours at 35° C.): 32 mg/L (≈ 27.5 µM) | MIC Enterococcus faecalis (GC 2691) ([3]; strain GC 2691, broth dilution, 18 hours at 35° C.): 32 mg/L (≈ 27.5 µM) | MIC Enterococcus faecalis (GC 3059) ([3]; strain GC 3059, broth dilution, 18 hours at 35° C.): 32 mg/L (≈ 27.5 µM) | MIC Enterococcus faecalis (GC 4552) ([3]; strain GC 4552, broth dilution, 18 hours at 35° C.): 32 mg/L (≈ 27.5 µM) | MIC Enterococcus faecalis (GC 4553) ([3]; strain GC 4553, broth dilution, 18 hours at 35° C.): 32 mg/L (≈ 27.5 µM) | MIC Enterococcus faecalis (GC 4554) ([3]; strain GC 4554, broth dilution, 18 hours at 35° C.): 32 mg/L (≈ 27.5 µM) | MIC Enterococcus faecium (GC 4556) ([3]; strain GC 4556, broth dilution, 18 hours at 35° C.): 64 mg/L (≈ 55.1 µM) | MIC Enterococcus faecium (GC 4557) ([3]; strain GC 4557, broth dilution, 18 hours at 35° C.): 8 mg/L (≈ 6.88 µM) | MIC Enterococcus avium (GC 4558) ([3]; strain GC 4558, broth dilution, 18 hours at 35° C.): 16 mg/L (≈ 13.8 µM) | MIC Enterococcus faecalis (GC 6189) ([3]; strain GC 6189, broth dilution, 18 hours at 35° C.): 64 mg/L (≈ 55.1 µM) | MIC Escherichia coli (ATCC 25922) ([4]; strain ATCC 25922, broth dilution, 18 hours at 35° C.): 64 mg/L (≈ 55.1 µM) | MIC Escherichia coli (GC 4559) ([4]; strain GC 4559, broth dilution, 18 hours at 35° C.): 64 mg/L (≈ 55.1 µM) | MIC Escherichia coli (GC 4560) ([4]; strain GC 4560, broth dilution, 18 hours at 35° C.): 16 mg/L (≈ 13.8 µM)
Compound: COc1cc(-c2nc3cc(CC4NC(=O)C(C(C)c5ccccc5)NC(=O)CNC(=O)C(CO)NC(=O)C(C(O)C5CNC(=N)N5C5OC(CO)C(O)C(O)C5O)NC(=O)C(C(O)C5CNC(=N)N5)NC4=O)ccc3o2)cc(OC)c1OC (stereo not drawn) [Example 34, Cyclo[3-[2-(3,4,5-trimethoxyphenyl)-1,3-benzoxazol-5-yl]alanyl-3-(2-iminoimidazolidin-4-yl)seryl-3-(3-hexopyranosyl-2-iminoimidazolidin-4-yl)serylserylglycyl-β-methylphenyl-alanyl]]
MIC Staphylococcus haemolyticus (GC 4546) ([2]; strain GC 4546, broth dilution, 18 hours at 35° C.): 8 mg/L (≈ 6.88 µM)
